Measurements taken from PMC5318233 (Cancer letters, 2016).

Tests used:
[1] = biological target: complex III (electron transport chain); assay type: biochemical
[2] = biological target: complex I (NADH-ubiquinone oxidoreductase); assay type: biochemical

Compound: Cc1ccc(Sc2cccc3[nH]c4nc(N)nc(N)c4c23)cc1 [AG311]
- Ki [1]: 32 µM
- Ki [2]: 0.84 µM
